The values that follow come from patent publication US9645138B2, “Method to evaluate the tissue targeting of a molecule of interest” (IMABIOTECH, priority 2013, dated 2017).

Like-named read-outs stand apart in the source and are kept apart here.

For series [1], the system named is receptor in the brain (GABA). Briefly: Receptor occupancy / adsorption by MALDI imaging of rat brain sections, Diazepam dosed and Lorazepam washing (Example 2). The source says: FIG. 7 explains the methodology of adsorption of a molecule on tissue using the example of the receptor occupancy process. In this way, it is possible to measure the occupancy efficiency of the receptor by the drug (agonist) administered to the animal compared with an antagonist molecule. In this example, all the steps of the methodology are described: the dosed tissue analysis alone, the washing step with the antagonist solution of the control tissue and the combined dosed/washing analysis of the administrated sample. No negative marker is required for this kind of experiment.
Of course, in an almost identical manner an imaging device other that MALDI can be used, such as the following: SIMS, DESI, DIOS, ICP, MALDI microscope, SNOM, SMALDI, LA-ICP, ESI (liquid extraction on tissue), MILDI, JEDI, ELDI, etc.
Wild-type rats weighing 35-40 g were used. […] Animals (dosed and control rats) were sacrificed by CO2 asphyxiation. […] Finally, brains were stored at −80° C.
Brains (control and dosed tissues) were sectioned into 10 μm thick layers (coronal section) using a Microm HM560 (Thermo Scientific, France) cooled at −20° C.
The antagonist solution was prepared from a stock solution of Lorazepam at 1 mg/ml in methanol (100%). The final concentration of the washing solution was fixed at 100 pmol/μL in methanol/water+0.1% TFA (7:3). The concentration of the antagonist is a crucial factor for receptor occupancy that improves the binding capacity of the molecule. 20 μL of the solution was spotted on the tissue section (one dosed and one control sample) and then incubated for 1 hour at 37° C. in a box inside an INCU-Line incubator (VWR, France). A dosed brain section without washing was also put in the incubator.
After incubation, tissues were washed using 2 steps to remove unbound molecules from the tissue, firstly with a solution of methanol/water+0.1% TFA (7:3) corresponding to the antagonist washing solution. Secondly, the tissue is washed using only water solution (10 mL) and then placed into a desiccator for 15 min.
A DHB matrix was used for the analysis of all brain tissue sections with or without washing with the Lorazepam solution. This matrix was prepared at a concentration of 40 mg/ml in methanol/water+0.1% TFA (1:1, v/v).
The data was generated in positive reflectron mode.
The F2 factor allows comparison of the fine localization of the agonist and the antagonist in the white matter region and gives information about their similarity or dissimilarity.

For series [2] the following is noted: Swiss, mouse, in vivo.
Method: (§1) The target tissue, hereinafter “tissue 1”, comprises the medulla and renal calices.
(§2) The non-target adjacent tissue, hereinafter “tissue 2”, is also considered and comprises the renal cortex region.
(§3) Wild-type mice of Swiss strain weighing 25-40 g from Charles River Laboratories were used. […] Mice were sacrificed by CO2 asphyxiation. Kidneys were then removed and plunged into 100% isopentane solution cooled by liquid nitrogen for rapid freezing. Finally, kidneys were stored at −80° C.
(§4) Kidneys were sectioned into 10 μm thick layers (sagittal sections) using a Microm HM560 (Thermo Scientific, France) cooled at −21° C. The sections were then deposited on conductive ITO (indium tin oxide) slides (Delta Technology, USA). Finally, the sections were kept in the cryostat chamber 30 min for cryodrying and then placed in a desiccator for 30 minutes.
(§5) A CHCA matrix was used for the analysis of all kidney tissue sections. This matrix was prepared at a concentration of 10 mg/ml in acetonitrile/water+0.1% TFA (6:1, v/v). The matrix solution was deposited using the SunCollect spraying system (SunChrom, Germany) following optimized protocol.
(§6) The images were obtained using an AutoFlex Speed MALDI-TOF mass spectrometer (Bruker Daltonics, Bremen, Germany) equipped with a Smartbeam II laser. The data was generated in positive reflectron mode. A total of 500 spectra were obtained for each spot with a 1000 Hz laser frequency and a 200×200 μm^2 image spatial resolution on a mass range of 100 to 1000 Da. The FlexImaging version 4.0 software was used to reconstruct the images and Quantinetix 1.6 software (ImaBiotech, Loos, France) permitted the extraction of spectral intensities of ions corresponding to each studied molecule.
(§7) The imaging data treatment software Quantinetix is used to extract relative intensities of each ion of interest and control compound for each position (or voxel) within each drawn region.
(§8) The next step is to normalize the whole dataset in order to compare them. The highest intensity related to each ion is used to normalize the intensities per position. One calculates mean normalized intensities for each ion and tissue type.
(§9) By definition, one considers that positive control compound factor F1 is equal to 100% whereas negative control compound factor F1 is equal to 0%.
(§10) F2 factor calculation is performed using normalized intensity values from the previous F1 factor evaluation. Position per position, one assesses the standard deviations of intensity values of the molecule of interest and the negative control with positive control one at the level of the target tissue (T1).
(§11) By definition, the positive control compound's factor F2 is considered equal to 100% whereas the negative control compound's factor F2 is equal to 0%.
A short description of series [3]: MALDI mass spectrometry imaging of mouse kidney sections after oral co-administration (Example 1).
Method: as §1, §2, §3, §4, §5, §6, §7, §8, §9, §10, §11
The mark [4] stands for this setting: rat brain targeted area T1, positive marker Lorazepam = 100%.
Setting [5] is: mouse kidney target tissue T1, positive control 100% and negative control 0% by definition.

Regarding `O=C1Nc2ccc(Cl)cc2C(c2ccccc2Cl)=NC1O` (centres unmarked) [Lorazepam], in series [1] (control tissue section washed with the Lorazepam solution (100 pmol/μL, 1 hour at 37° C.)), the “localization on the brain section (MSI)” value is listed as “especially in the white matter”. For the same molecule, in series [1] (setting [4]), the “F1 (%)” value is given as 100% and the “F2 (%)” value is recorded as 100%. The “Normalized mean intensity/Tissue T1” value in series [1] (rat brain, targeted area T1 (white matter, receptor binding site), Diazepam 15 mg/kg i.v., Lorazepam washing 100 pmol/μL) is 0.821. Also, the “Normalized mean intensity/Tissue T2” value in series [1] (rat brain, untargeted area T2 (rest of the brain), Diazepam 15 mg/kg i.v., Lorazepam washing 100 pmol/μL) is listed as 0.21. For the same molecule, in series [1] (target area (Receptor) T1, rat brain), the “% Tar (targeting coefficient)” value came out at 100%.

Take `CN1C(=O)CC(C)(c2ccccc2)C1=O` (centres unmarked) [Methsuximide]: in series [2], the “% Tg (global targeting coefficient)” value is 0%, the “F1 (%)” value was found to be 0% and the “F2 (%)” value is 0%. For the same molecule, in series [2] (po, 8 mg/kg), the “Mean normalized intensity per tissue T1” value is on record as 0.062 and the “Mean normalized intensity per tissue T2” value is listed as 0.241.

On to `Cc1cc2c(s1)Nc1ccccc1N=C2N1CCN(C)CC1` [Olanzapine], for which the “% Tg (global targeting coefficient)” value in series [3] (mouse kidney target tissue T1) is listed as 40%. In addition, the “F1 (%)” value in series [3] (setting [5]) is 52.2%. In addition, in series [3] (mouse kidney, oral 8 mg/kg), the “distribution in the kidney section (MS image, FIG. 6)” value is recorded as “mainly localized in the right half section of the medulla”. In addition, the “affinity / targeting behavior for the medulla region” value in series [3] (mouse kidney, summary of Example 1) is listed as “mean affinity”.

In the case of `CC[C@@H]([C@H](C)O)n1ncn(-c2ccc(N3CCN(c4ccc(OC[C@@H]5CO[C@@](Cn6cncn6)(c6ccc(F)cc6F)C5)cc4)CC3)cc2)c1=O` [Posaconazole], in series [3] (mouse kidney target tissue T1), the “% Tg (global targeting coefficient)” value is 100%. Besides, in series [3] (setting [5]), the “F1 (%)” value came out at 100% and the “F2 (%)” value worked out at 100%. The “Mean normalized intensity per tissue T2” value in series [3] (mouse kidney, non target tissue T2 (renal cortex), oral 8 mg/kg, MALDI imaging) is reported as 0.055. Moreover, the “Mean normalized intensity per tissue T1” value in series [3] (mouse kidney, target tissue T1 (medulla), oral 8 mg/kg, MALDI imaging) stood at 0.281.
